Assay results reported in the NIST ThermoML archive (doi:10.1021/je034062r).

Test: xn = mol fraction of the nth substance listed
Settings: for mass density: Liquid; for surface tension liquid-gas: Pendant drop shape

C1CCCCC1 [cyclohexane] + CCCCCCC
Settings | mass density [kg/m3] | surface tension liquid-gas [mN/m]
283.15 K, x1 = 0.1022 | 699.2 | –
283.15 K, x1 = 0.2022 | 706.5 | –
283.15 K, x1 = 0.3078 | 714.6 | –
283.15 K, x1 = 0.401 | 722.3 | –
283.15 K, x1 = 0.4984 | 730.8 | –
283.15 K, x1 = 0.7003 | 750.8 | –
283.15 K, x1 = 0.8054 | 761.5 | –
283.15 K, x1 = 0.898 | 774.2 | –
283.15 K, x1 = 1 | 787.9 | –
287.81 K, x1 = 0.1022 | – | 20.91
287.81 K, x1 = 0.2022 | – | 21.31
287.81 K, x1 = 0.3078 | – | 21.65
287.81 K, x1 = 0.401 | – | 21.88
287.81 K, x1 = 0.4984 | – | 22.27
287.81 K, x1 = 0.6002 | – | 22.62
287.81 K, x1 = 0.7003 | – | 23.08
287.81 K, x1 = 0.8054 | – | 23.84
287.81 K, x1 = 0.898 | – | 24.39
287.81 K, x1 = 1 | – | 25.34
288.15 K, x1 = 0.1022 | 695 | –
288.15 K, x1 = 0.2022 | 702.2 | –
288.15 K, x1 = 0.3078 | 710.4 | –
288.15 K, x1 = 0.401 | 717.9 | –
288.15 K, x1 = 0.4984 | 726.5 | –
288.15 K, x1 = 0.7003 | 746.4 | –
288.15 K, x1 = 0.8054 | 758 | –
288.15 K, x1 = 0.898 | 769.7 | –
288.15 K, x1 = 1 | 783.2 | –
293.15 K, x1 = 0.1022 | 690.8 | –
293.15 K, x1 = 0.2022 | 698 | –
293.15 K, x1 = 0.3078 | 706.1 | –
293.15 K, x1 = 0.401 | 713.6 | –
293.15 K, x1 = 0.4984 | 722.2 | –
293.15 K, x1 = 0.7003 | 742 | –
293.15 K, x1 = 0.8054 | 753.5 | –
293.15 K, x1 = 0.898 | 765.1 | –
293.15 K, x1 = 1 | 778.6 | –
297.82 K, x1 = 0.1022 | – | 19.95
297.82 K, x1 = 0.2022 | – | 20.25
297.82 K, x1 = 0.3078 | – | 20.52
297.82 K, x1 = 0.401 | – | 20.9
297.82 K, x1 = 0.4984 | – | 21.21
297.82 K, x1 = 0.6002 | – | 21.57
297.82 K, x1 = 0.7003 | – | 22.14
297.82 K, x1 = 0.8054 | – | 22.72
297.82 K, x1 = 0.898 | – | 23.32
297.82 K, x1 = 1 | – | 24.2
298.15 K, x1 = 0.1022 | 686.5 | –
298.15 K, x1 = 0.2022 | 693.6 | –
298.15 K, x1 = 0.3078 | 701.7 | –
298.15 K, x1 = 0.401 | 709.2 | –
298.15 K, x1 = 0.4984 | 717.8 | –
298.15 K, x1 = 0.6002 | 725.6 | –
298.15 K, x1 = 0.7003 | 737.5 | –
298.15 K, x1 = 0.8054 | 749 | –
298.15 K, x1 = 0.898 | 760.5 | –
298.15 K, x1 = 1 | 773.9 | –
303.15 K, x1 = 0.1022 | 682.2 | –
303.15 K, x1 = 0.2022 | 689.3 | –
303.15 K, x1 = 0.3078 | 697.4 | –
303.15 K, x1 = 0.401 | 704.8 | –
303.15 K, x1 = 0.4984 | 713.3 | –
303.15 K, x1 = 0.6002 | 722 | –
303.15 K, x1 = 0.7003 | 733 | –
303.15 K, x1 = 0.8054 | 744.4 | –
303.15 K, x1 = 0.898 | 755.8 | –
303.15 K, x1 = 1 | 769.2 | –
307.86 K, x1 = 0.1022 | – | 18.91
307.86 K, x1 = 0.2022 | – | 19.25
307.86 K, x1 = 0.3078 | – | 19.58
307.86 K, x1 = 0.401 | – | 19.87
307.86 K, x1 = 0.4984 | – | 20.19
307.86 K, x1 = 0.6002 | – | 20.53
307.86 K, x1 = 0.7003 | – | 21.06
307.86 K, x1 = 0.8054 | – | 21.64
307.86 K, x1 = 0.898 | – | 22.18
307.86 K, x1 = 1 | – | 23.02
308.15 K, x1 = 0.1022 | 677.8 | –
308.15 K, x1 = 0.2022 | 685 | –
308.15 K, x1 = 0.3078 | 693 | –
308.15 K, x1 = 0.401 | 700.4 | –
308.15 K, x1 = 0.4984 | 708.9 | –
308.15 K, x1 = 0.6002 | 718.1 | –
308.15 K, x1 = 0.7003 | 728.4 | –
308.15 K, x1 = 0.8054 | 739.8 | –
308.15 K, x1 = 0.898 | 751.2 | –
308.15 K, x1 = 1 | 764.4 | –
313.15 K, x1 = 0.1022 | 673.5 | –
313.15 K, x1 = 0.2022 | 680.6 | –
313.15 K, x1 = 0.3078 | 688.6 | –
313.15 K, x1 = 0.401 | 696 | –
313.15 K, x1 = 0.4984 | 704.4 | –
313.15 K, x1 = 0.6002 | 713.8 | –
313.15 K, x1 = 0.7003 | 723.9 | –
313.15 K, x1 = 0.8054 | 735.2 | –
313.15 K, x1 = 0.898 | 746.5 | –
313.15 K, x1 = 1 | 759.6 | –
317.86 K, x1 = 0.1022 | – | 17.91
317.86 K, x1 = 0.2022 | – | 18.36
317.86 K, x1 = 0.3078 | – | 18.53
317.86 K, x1 = 0.401 | – | 18.82
317.86 K, x1 = 0.4984 | – | 19.16
317.86 K, x1 = 0.6002 | – | 19.55
317.86 K, x1 = 0.7003 | – | 20.01
317.86 K, x1 = 0.8054 | – | 20.56
317.86 K, x1 = 0.898 | – | 21.07
317.86 K, x1 = 1 | – | 21.84
318.15 K, x1 = 0.1022 | 669 | –
318.15 K, x1 = 0.2022 | 676.1 | –
318.15 K, x1 = 0.3078 | 684.1 | –
318.15 K, x1 = 0.401 | 691.5 | –
318.15 K, x1 = 0.4984 | 699.9 | –
318.15 K, x1 = 0.6002 | 709.3 | –
318.15 K, x1 = 0.7003 | 719.3 | –
318.15 K, x1 = 0.8054 | 730.6 | –
318.15 K, x1 = 0.898 | 741.8 | –
318.15 K, x1 = 1 | 754.8 | –
323.15 K, x1 = 0.1022 | 664.6 | –
323.15 K, x1 = 0.2022 | 671.7 | –
323.15 K, x1 = 0.3078 | 679.6 | –
323.15 K, x1 = 0.401 | 686.9 | –
323.15 K, x1 = 0.4984 | 695.4 | –
323.15 K, x1 = 0.6002 | 704.7 | –
323.15 K, x1 = 0.7003 | 714.7 | –
323.15 K, x1 = 0.8054 | 725.9 | –
323.15 K, x1 = 0.898 | 737.1 | –
323.15 K, x1 = 1 | 750 | –
327.88 K, x1 = 0.1022 | – | 16.83
327.88 K, x1 = 0.2022 | – | 17.05
327.88 K, x1 = 0.3078 | – | 17.41
327.88 K, x1 = 0.401 | – | 17.52
327.88 K, x1 = 0.4984 | – | 17.99
327.88 K, x1 = 0.6002 | – | 18.44
327.88 K, x1 = 0.7003 | – | 18.95
327.88 K, x1 = 0.8054 | – | 19.48
327.88 K, x1 = 0.898 | – | 19.98
327.88 K, x1 = 1 | – | 20.71
328.15 K, x1 = 0.1022 | 660.1 | –
328.15 K, x1 = 0.2022 | 667.2 | –
328.15 K, x1 = 0.3078 | 675.1 | –
328.15 K, x1 = 0.401 | 682.4 | –
328.15 K, x1 = 0.4984 | 691 | –
328.15 K, x1 = 0.6002 | 700.1 | –
328.15 K, x1 = 0.7003 | 710 | –
328.15 K, x1 = 0.8054 | 721.2 | –
328.15 K, x1 = 0.898 | 732.3 | –
328.15 K, x1 = 1 | 745.2 | –
333.15 K, x1 = 0.1022 | 655.5 | –
333.15 K, x1 = 0.3078 | 670.5 | –
333.15 K, x1 = 0.401 | 677.8 | –
333.15 K, x1 = 0.4984 | 686.2 | –
333.15 K, x1 = 0.6002 | 695.5 | –
333.15 K, x1 = 0.7003 | 705.3 | –
333.15 K, x1 = 0.8054 | 716.5 | –
333.15 K, x1 = 0.898 | 727.5 | –
333.15 K, x1 = 1 | 740.3 | –
